Source: US20260207645A1, “USE OF INTEGRIN A5B1 AS TARGET IN SCREENING OF DRUGS FOR PREVENTING AND/OR TREATING BONE LOSS” (The Hong Kong Polytechnic University, priority 2023, published 2026)
Blank lines part the entries; values can stand above or below the compound they belong to.

Key:
integrin α5β1 = target: T1, integrin α5β1 (Homo sapiens, UniProt P05556+P08648); experiment: competitive solid-phase binding ELISA (soluble integrin α5β1 vs coated fibronectin); settings: fibronectin-coated plate, soluble integrin α5β1 1.0 μg/ml; read-out: IC50 for competing with fibronectin bound on integrin α5β1
T1 construct: Soluble integrin α5β1 (1.0 μg/ml) (R&D Systems, MN, USA); purchased R&D Systems

BMSCs = experiment: F-actin cytoskeleton (phalloidin staining, confocal) in BMSCs under microgravity; assay type: cell-based; settings: microgravity 3 days
Method: Testing procedure: BMSCs were cultured in osteogenic medium. […] The representative images were captured at mid-plane of the cells and visualized using a confocal laser scanning microscope (magnification: 400×, scale bar: 25 μm). Hoechst counter-staining (blue; DAPI) was applied for determination of single cells.

differentiated BMSCs = experiment: quantitative analysis of differentiation activity (ALP, RhoA, Rac1) of BMSCs under normal gravity and microgravity; assay type: cell-based; settings: microgravity
Method: Testing procedure: BMSCs were cultured in osteogenic medium. […] The representative images were captured at mid-plane of the cells and visualized using a confocal laser scanning microscope (magnification: 400×, scale bar: 25 μm). Hoechst counter-staining (blue; DAPI) was applied for determination of single cells. […] The quantitative analysis of the differentiation activity of BMSCs under normal gravity and microgravity is shown in FIG. 6, where FIG. 6a is the ALP activity analysis relative to the positive control group, FIG. 6b is the RhoA activity analysis in total protein, and FIG. 6c is the Rac1 activity analysis in total protein. The data in FIGS. 6a, 6b, and 6c are presented as mean values±SEM. Statistical analysis was performed using one-way […]<0.001; versus control: *p<0.05, ###p<0.001 (n=3).

[1] = growth factor, concentration not given

IC50 (integrin α5β1): 390 ± 280 nM
Compound: CC(C)=CCc1c(O)cc(O)c2c(=O)c(-c3ccc(O)cc3)coc12 [8-prenylgenistein]

IC50 (integrin α5β1): 7.6 ± 3.92 nM
Compound: CC(C)=CCc1c(O)cc(O)c2c1O[C@H](c1ccc(O)cc1)CC2=O [8-prenylnaringenin]

Compound: C[C@]12CC[C@@H]3c4ccc(O)cc4CC[C@H]3[C@@H]1CC[C@@H]2O [E2, reference compound]
F-actin polymerization (BMSCs; [1]): not

Compound: IGF-1: growth factor, positive control
F-actin polymerization (BMSCs; [1]): stimulated F-actin polymerization

Compound: COc1ccc(-c2oc3c(CC=C(C)C)c(O[C@@H]4O[C@H](CO)[C@@H](O)[C@H](O)[C@H]4O)cc(O)c3c(=O)c2O[C@@H]2O[C@@H](C)[C@H](O)[C@@H](O)[C@H]2O)cc1 [icariin]
ALP activity (differentiated BMSCs; differentiated BMSCs): significantly increase
Rac1 activity (differentiated BMSCs; differentiated BMSCs): significantly increase
RhoA activity (differentiated BMSCs; differentiated BMSCs): significantly increase
differentiation of BMSCs (differentiated BMSCs; 10 nM): restore the differentiation
differentiation of BMSCs (differentiated BMSCs; 100 nM): restore the differentiation
F-actin polymerization (BMSCs; 10 nM): stimulated F-actin polymerization
F-actin polymerization (BMSCs; 0.1 μM): stimulated F-actin polymerization
